Patent publication US10124004B2, “Pyrido[3,4-d]pyrimidine derivative and pharmaceutically acceptable salt thereof” (Teijin Pharma Limited, priority 2015, dated 2018)

Key:
[1] = target: T1, CDK4/cyclin D3 (Homo sapiens, UniProt P11802); assay: Human CDK4/cyclin D3 inhibitory activity (QS S Assist CDK4/Cyclin D3_FP Kit, IMAP fluorescence polarization); type: biochemical; conditions: Human CDK4/cyclin D3 inhibitory activity; read-out: CDK4 Activity symbol
T1 construct: purchased Carna Biosciences, Inc. QS S Assist CDK4/Cyclin D3_FP Kit
T1 sequence (P11802 whole entry): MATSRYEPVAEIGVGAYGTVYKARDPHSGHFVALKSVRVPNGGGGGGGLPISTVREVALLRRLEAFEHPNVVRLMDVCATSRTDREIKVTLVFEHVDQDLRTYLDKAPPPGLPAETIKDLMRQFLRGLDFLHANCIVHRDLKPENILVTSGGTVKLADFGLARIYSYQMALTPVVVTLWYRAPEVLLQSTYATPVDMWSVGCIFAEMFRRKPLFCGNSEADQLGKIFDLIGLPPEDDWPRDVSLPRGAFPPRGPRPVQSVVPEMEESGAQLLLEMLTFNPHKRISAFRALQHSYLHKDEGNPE
T1 sequence (P30281 whole entry partner): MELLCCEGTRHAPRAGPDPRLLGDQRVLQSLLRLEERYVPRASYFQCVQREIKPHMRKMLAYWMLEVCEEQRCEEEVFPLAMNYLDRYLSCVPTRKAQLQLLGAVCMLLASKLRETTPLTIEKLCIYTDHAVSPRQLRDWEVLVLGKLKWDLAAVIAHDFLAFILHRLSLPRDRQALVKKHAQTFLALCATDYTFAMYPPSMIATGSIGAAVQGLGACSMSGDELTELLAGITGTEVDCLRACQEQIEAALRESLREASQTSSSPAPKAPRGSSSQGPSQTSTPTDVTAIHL
Outline: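 Percent inhibition, relative to DMSO with and without enzyme, was curve-fitted to give IC50 from polarization (ex 485, em 535 nm). The 45-min room-temperature reaction used 12.5-25 ng/well enzyme, kit ATP/substrate/metal mix, and HEPES pH 7.4 buffer with Tween20 and DTT, followed by 30-min IMAP binding in the dark.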

[2] = target: T2, CDK2/cyclin A2 (Homo sapiens, UniProt P24941); assay: Human CDK2/cyclin A2 inhibitory activity (QS S Assist CDK2/Cyclin A2_FP Kit, IMAP fluorescence polarization); type: biochemical; conditions: Human CDK2/cyclin A2 inhibitory activity; read-out: CDK2 Activity symbol
T2 construct: purchased Carna Biosciences, Inc. QS S Assist CDK2/Cyclin A2_FP Kit
Outline: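 Kinase activity read as fluorescence polarization (485/535 nm) after phosphorylated fluorescent substrate binds IMAP reagent (30 min, RT, dark). Enzyme (2.5 ng/well) reacted 60 min at RT with ATP/substrate/metal in HEPES pH 7.4 buffer with Tween 20 and DTT; no-enzyme wells define 0% activity; IC50 by curve fit.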

| Compound | IC50 [1] | IC50 [2] |
| --- | --- | --- |
| CO[C@H](C)c1cc2cnc(Nc3ccc(N4CCNCC4)nn3)nc2c(N[C@H]2CC[C@H](O)CC2)n1 [Compound 341] | < 10 nM | ≥ 100 nM |
| C[C@@H](O)c1cc2cnc(Nc3ccc(CN4CCNCC4)cn3)nc2c(N[C@H]2CC[C@H](C(=O)O)CC2)n1 [Compound 342] | < 10 nM | ≥ 100 nM |
| CO[C@H](C)c1cc2cnc(Nc3ccc(CN4CCNCC4)cn3)nc2c(N[C@H]2CC[C@H](C(=O)O)CC2)n1 [Compound 343] | < 10 nM | ≥ 100 nM |
| C[C@@H](O)c1cc2cnc(Nc3ccc(CN4CCNCC4)cn3)nc2c(N[C@H]2CC[C@H](O)CC2)n1 [Compound 344] | < 10 nM | ≥ 100 nM |
| C[C@@H](O)c1cc2cnc(Nc3ccc(N4CCNCC4=O)cn3)nc2c(N[C@H]2CCCOC2)n1 [Compound 347] | < 10 nM | ≥ 100 nM |
| C[C@@H](O)c1cc2cnc(Nc3ccc(N4CCNCC4=O)cn3)nc2c(N[C@@H]2CCOC2)n1 [Compound 348] | < 10 nM | ≥ 100 nM |
| C[C@@H](O)c1cc2cnc(Nc3ccc(N4CCNCC4=O)cn3)nc2c(N[C@H]2CCOC2)n1 [Compound 349] | 10 to 100 nM | ≥ 100 nM |
| C[C@@H](O)c1cc2cnc(Nc3ccc(N4CCN(C=O)CC4=O)cn3)nc2c(N[C@@H]2CCCOC2)n1 [Compound 351] | < 10 nM | ≥ 100 nM |
| C[C@@H](O)c1cc2cnc(Nc3ccc(N4CCN(C=O)CC4=O)cn3)nc2c(N[C@H]2CCOC2)n1 [Compound 354] | 10 to 100 nM | ≥ 100 nM |
| CO[C@H](C)c1cc2cnc(Nc3ccc(N4CCNCC4)nn3)nc2c(NCC2CCOCC2)n1 [Compound 358] | < 10 nM | ≥ 100 nM |
| CN(C)CCOc1ccc(Nc2ncc3cc(C(F)F)nc(NC4CCCOC4)c3n2)nc1 (stereo not drawn) [Compound 366] | < 10 nM | ≥ 100 nM |
| C[C@@H](O)c1nc(N[C@H]2CC[C@H](O)CC2)c2nc(Nc3ccc(N4CCNCC4)nn3)ncc2c1Cl [Compound 368] | < 10 nM | ≥ 100 nM |
| C[C@@H](O)c1nc(N[C@H]2CCCOC2)c2nc(Nc3ccc(CN4CCNCC4)cn3)ncc2c1Cl [Compound 369] | < 10 nM | ≥ 100 nM |
| CO[C@H](C)c1cc2cnc(Nc3ccc(N4CCNC[C@@H]4C)nn3)nc2c(NC(C)C)n1 [Compound 371] | < 10 nM | ≥ 100 nM |
| COCC(C)(C)Nc1nc([C@@H](C)O)cc2cnc(Nc3cnc(N4CCNCC4)cn3)nc12 [Compound 373] | < 10 nM | ≥ 100 nM |
| CC(C)Nc1nc([C@@H](C)O)cc2cnc(Nc3ccc(N4CCNC5(CC5)C4)nn3)nc12 [Compound 379] | < 10 nM | ≥ 100 nM |
| FC(F)c1cc2cnc(Nc3ccc(CN4CCNCC4)cn3)nc2c(N[C@H]2CCCOC2)n1 [Compound 380] | < 10 nM | ≥ 100 nM |
| CN(C)CCOc1ccc(Nc2ncc3cc(C(F)F)nc(N[C@H]4CCCOC4)c3n2)nc1 [Compound 382] | < 10 nM | ≥ 100 nM |
| O=C(O)[C@H]1CC[C@H](Nc2nc(C(F)F)cc3cnc(Nc4ccc(CN5CCNCC5)cn4)nc23)CC1 [Compound 383] | 10 to 100 nM | ≥ 100 nM |
| O=C(O)[C@H]1CC[C@H](Nc2nc(C(F)F)cc3cnc(Nc4ccc(N5CCNCC5)nn4)nc23)CC1 [Compound 384] | 10 to 100 nM | ≥ 100 nM |
| CN(C)CCOc1ccc(Nc2ncc3cc(C(F)F)nc(N[C@H]4CC[C@H](C(=O)O)CC4)c3n2)nc1 [Compound 385] | < 10 nM | ≥ 100 nM |
| CO[C@H](C)c1cc2cnc(Nc3ccc(C(=O)N4CCNCC4)cn3)nc2c(NC(C)C)n1 [Compound 389] | < 10 nM | 10 to 100 nM |
| COC(C)c1cc2cnc(Nc3ccc(CN4CCNCC4)cn3)nc2c(NCC2CCCOC2)n1 (stereo not drawn) [Compound 400] | < 10 nM | ≥ 100 nM |
| COC(C)c1cc2cnc(Nc3ccc(CN4CCNCC4)cn3)nc2c(NC2CCC(C)(C)OC2)n1 (stereo not drawn) [Compound 432] | < 10 nM | ≥ 100 nM |
| COC(C)c1cc2cnc(Nc3ccc(CN4CCNCC4)cn3)nc2c(SC(C)C)n1 (stereo not drawn) [Compound 456] | < 10 nM | ≥ 100 nM |

Continued, values first:

| IC50 [1] | IC50 [2] | Compound |
| --- | --- | --- |
| < 10 nM | ≥ 100 nM | C[C@@H](O)c1cc2cnc(Nc3ccc(N4CCNCC4)nn3)nc2c(N[C@H]2CC[C@H](O)CC2)n1 [Compound 340] |
| < 10 nM | ≥ 100 nM | CO[C@H](C)c1cc2cnc(Nc3ccc(CN4CCNCC4)cn3)nc2c(N[C@H]2CC[C@H](O)CC2)n1 [Compound 345] |
| < 10 nM | ≥ 100 nM | CC(O)c1cc2cnc(Nc3ccc(N4CCNCC4=O)cn3)nc2c(NC2CCCOC2)n1 (stereo not drawn) [Compound 346] |
| < 10 nM | ≥ 100 nM | C[C@@H](O)c1cc2cnc(Nc3ccc(N4CCNCC4=O)cn3)nc2c(NC2CCOCC2)n1 [Compound 350] |
| < 10 nM | ≥ 100 nM | C[C@@H](O)c1cc2cnc(Nc3ccc(N4CCN(C=O)CC4=O)cn3)nc2c(N[C@H]2CCCOC2)n1 [Compound 352] |
| < 10 nM | ≥ 100 nM | C[C@@H](O)c1cc2cnc(Nc3ccc(N4CCN(C=O)CC4=O)cn3)nc2c(N[C@@H]2CCOC2)n1 [Compound 353] |
| < 10 nM | ≥ 100 nM | C[C@@H](O)c1cc2cnc(Nc3ccc(N4CCN(C=O)CC4=O)cn3)nc2c(NC2CCOCC2)n1 [Compound 355] |
| < 10 nM | ≥ 100 nM | CO[C@H](C)c1cc2cnc(Nc3ccc(CN4CCNCC4)cn3)nc2c(NCC2CCOCC2)n1 [Compound 360] |
| < 10 nM | 10 to 100 nM | FC(F)c1cc2cnc(Nc3ccc(CN4CCNCC4)cn3)nc2c(NC2CCOCC2)n1 [Compound 364] |
| < 10 nM | ≥ 100 nM | FC(F)c1cc2cnc(Nc3ccc(N4CCNCC4)nn3)nc2c(NC2CCOCC2)n1 [Compound 365] |
| < 10 nM | ≥ 100 nM | C[C@@H](O)c1nc(N[C@H]2CCCOC2)c2nc(Nc3ccc(N4CCNCC4)nn3)ncc2c1Cl [Compound 367] |
| < 10 nM | ≥ 100 nM | C[C@@H](O)c1nc(N[C@H]2CC[C@H](O)CC2)c2nc(Nc3ccc(CN4CCNCC4)cn3)ncc2c1Cl [Compound 370] |
| < 10 nM | ≥ 100 nM | CO[C@H](C)c1cc2cnc(Nc3ccc(N4CCNC[C@H]4C)nn3)nc2c(NC(C)C)n1 [Compound 372] |
| < 10 nM | ≥ 100 nM | CO[C@H](C)c1cc2cnc(Nc3ccc(N4CCNC5(CC5)C4)nn3)nc2c(N[C@H]2CCCOC2)n1 [Compound 376] |
| < 10 nM | ≥ 100 nM | CO[C@H](C)c1cc2cnc(Nc3ccc(CN4CCNC5(CC5)C4)cn3)nc2c(N[C@H]2CCCOC2)n1 [Compound 378] |
| < 10 nM | ≥ 100 nM | FC(F)c1cc2cnc(Nc3ccc(N4CCNCC4)nn3)nc2c(N[C@H]2CCCOC2)n1 [Compound 381] |
| < 10 nM | ≥ 100 nM | O[C@H]1CC[C@H](Nc2nc(C(F)F)cc3cnc(Nc4ccc(CN5CCNCC5)cn4)nc23)CC1 [Compound 386] |
| < 10 nM | 10 to 100 nM | O[C@H]1CC[C@H](Nc2nc(C(F)F)cc3cnc(Nc4ccc(N5CCNCC5)nn4)nc23)CC1 [Compound 387] |
| < 10 nM | ≥ 100 nM | CN(C)CCOc1ccc(Nc2ncc3cc(C(F)F)nc(N[C@H]4CC[C@H](O)CC4)c3n2)nc1 [Compound 388] |
| < 10 nM | ≥ 100 nM | COC1CCC(Nc2nc(C(C)OC)cc3cnc(Nc4ccc(CN5CCNCC5)cn4)nc23)CC1 (stereo not drawn) [Compound 395] |
